In patent publication US20040063662A1, “Selenophene anti-tumor agents” (priority 1996, published 2004):

Key:
SK-OV-3 = experiment: NCI human tumor cell panel: SK-OV-3 (Ovarian Cancer); assay type: cell-based; conditions: SK-OV-3, Ovarian Cancer; for GI50: read-out: Log10 GI50 (converted); for IC (TGI): read-out: Log10 TGI (converted)
OVCAR-3 = experiment: NCI human tumor cell panel: OVCAR-3 (Ovarian Cancer); assay type: cell-based; conditions: OVCAR-3, Ovarian Cancer; for GI50: read-out: Log10 GI50 (converted); for IC (TGI): read-out: Log10 TGI (converted)
NCI-H522 = experiment: NCI human tumor cell panel: NCI-H522 (Non-Small Cell Lung Cancer); conditions: for GI50: NCI-H522, read-out: Log10 GI50 (converted); for IC (TGI): NCI-H522, read-out: Log10 TGI
HT29 = experiment: NCI human tumor cell panel: HT29 (Colon Cancer); assay type: cell-based; conditions: HT-29, HT29, Colon Cancer; for GI50: read-out: Log10 GI50 (converted); for IC (TGI): read-out: Log10 TGI (converted)
HCT-15 = experiment: NCI human tumor cell panel: HCT-15 (Colon Cancer); assay type: cell-based; conditions: HCT-15, Colon Cancer; for GI50: read-out: Log10 GI50 (converted)
PC-3 = experiment: NCI human tumor cell panel: PC-3 (Prostate Cancer); assay type: cell-based; conditions: PC-3, Prostate Cancer; for GI50: read-out: Log10 GI50 (converted); for IC (TGI): read-out: Log10 TGI (converted)
KM12 = experiment: NCI human tumor cell panel: KM12 (Colon Cancer); assay type: cell-based; conditions: KM12, Colon Cancer; for GI50: read-out: Log10 GI50 (converted); for IC (TGI): read-out: Log10 TGI (converted)
ACHN = experiment: NCI human tumor cell panel: ACHN (Renal Cancer); assay type: cell-based; conditions: Renal Cancer; for GI50: read-out: Log10 GI50 (converted); for IC (TGI): read-out: Log10 TGI (converted)
NCI-H322M = experiment: cells; assay type: cell-based; conditions: Homo sapiens, Non-Small Cell Lung Cancer; for GI50: read-out: Log10 GI50 (converted); for IC (TGI): read-out: Log10 TGI (converted)
SNB-19 = experiment: NCI human tumor cell panel: SNB-19 (CNS Cancer); assay type: cell-based; conditions: SNB-19, CNS Cancer; for GI50: read-out: Log10 GI50 (converted); for IC (TGI): read-out: Log10 TGI (converted)
[1] = test system: panel of sixty different human tumor cell lines; experiment: NCI human tumor cell panel: whole panel (mean graph summary); conditions: for GI50 / CC50: Homo sapiens; for GI50: read-out: Log10 GI50, cell line not given (converted); for CC50: read-out: Log10 LC50, cell line not given (converted); for Log10 TGI: cell line not given
SF-268 = experiment: NCI human tumor cell panel: SF-268 (CNS Cancer); assay type: cell-based; conditions: SF-268, CNS Cancer; for GI50: read-out: Log10 GI50 (converted); for IC (TGI): read-out: Log10 TGI (converted)
SK-MEL-28 = experiment: NCI human tumor cell panel: SK-MEL-28 (Melanoma); assay type: cell-based; conditions: SK-MEL-28, Melanoma; for GI50: read-out: Log10 GI50 (converted); for IC (TGI): read-out: Log10 TGI (converted)
RXF-393 = experiment: NCI human tumor cell panel: RXF-393 (Renal Cancer); assay type: cell-based; conditions: RXF-393, Renal Cancer; for GI50: read-out: Log10 GI50 (converted); for IC (TGI): read-out: Log10 TGI (converted)
EKVX = experiment: NCI human tumor cell panel: EKVX (Non-Small Cell Lung Cancer); assay type: cell-based; conditions: Non-Small Cell Lung Cancer; for GI50: read-out: Log10 GI50 (converted); for IC (TGI): read-out: Log10 TGI (converted)
T-47D = experiment: NCI human tumor cell panel: T-47D (Breast Cancer); assay type: cell-based; conditions: T47D, Breast Cancer; for GI50: read-out: Log10 GI50 (converted); for IC (TGI): read-out: Log10 TGI (converted)
HCT-116 = experiment: NCI human tumor cell panel: HCT-116 (Colon Cancer); assay type: cell-based; conditions: HCT-116, Colon Cancer; for GI50: read-out: Log10 GI50 (converted); for IC (TGI): read-out: Log10 TGI (converted)
MALME-3M = experiment: NCI human tumor cell panel: MALME-3M (Melanoma); assay type: cell-based; conditions: MALME-3M, Melanoma; for GI50: read-out: Log10 GI50 (converted); for IC (TGI): read-out: Log10 TGI (converted)
TK-10 = experiment: NCI human tumor cell panel: TK-10 (Renal Cancer); assay type: cell-based; conditions: TK-10, Renal Cancer; for GI50: read-out: Log10 GI50 (converted); for IC (TGI): read-out: Log10 TGI (converted)
HL-60(TB) = experiment: NCI human tumor cell panel: HL-60(TB) (Leukemia); assay type: cell-based; conditions: Leukemia; for GI50: read-out: Log10 GI50 (converted); for IC (TGI): read-out: Log10 TGI
HCC-2998 = experiment: NCI human tumor cell panel: HCC-2998 (Colon Cancer); assay type: cell-based; conditions: HCC-2998, Colon Cancer; for GI50: read-out: Log10 GI50 (converted)
MOLT-4 = experiment: NCI human tumor cell panel: MOLT-4 (Leukemia); assay type: cell-based; conditions: MOLT-4, Leukemia; for GI50: read-out: Log10 GI50 (converted); for IC (TGI): read-out: Log10 TGI (converted)
U251 = experiment: NCI human tumor cell panel: U251 (CNS Cancer); assay type: cell-based; conditions: U-251, U251, CNS Cancer; for GI50: read-out: Log10 GI50 (converted); for IC (TGI): read-out: Log10 TGI (converted)
K-562 = experiment: NCI human tumor cell panel: K-562 (Leukemia); assay type: cell-based; conditions: K562, K-562, Leukemia; for GI50: read-out: Log10 GI50 (converted); for IC (TGI): read-out: Log10 TGI (converted)
A549/ATCC = experiment: NCI human tumor cell panel: A549/ATCC (Non-Small Cell Lung Cancer); assay type: cell-based; conditions: Non-Small Cell Lung Cancer; for GI50: read-out: Log10 GI50 (converted); for IC (TGI): read-out: Log10 TGI (converted)
COLO 205 = experiment: NCI human tumor cell panel: COLO 205 (Colon Cancer); assay type: cell-based; conditions: COLO 205, Colon Cancer
NCI-H226 = experiment: NCI human tumor cell panel: NCI-H226 (Non-Small Cell Lung Cancer); assay type: cell-based; conditions: NCI-H226, Non-Small Cell Lung Cancer; for GI50: read-out: Log10 GI50 (converted); for IC (TGI): read-out: Log10 TGI (converted)
MDA-MB-231/ATCC = experiment: NCI human tumor cell panel: MDA-MB-231/ATCC (Breast Cancer); assay type: cell-based; conditions: Homo sapiens, MDA-MB-231, MDA-MB-231/ATCC, Breast Cancer
[2] = read-out: Log10 TGI (converted)
[3] = read-out: Log10 GI50 (converted)

Work on `O=Cc1ccc(-c2ccc(-c3cccs3)[se]2)s1` [NSC 675346] yielded a GI50 (SK-OV-3) of 12.6 µM, an IC (TGI) (SK-OV-3) of over 100 µM and a GI50 (OVCAR-3) of 0.0191 µM. It also gave an IC (TGI) (OVCAR-3) of 21.4 µM, a GI50 (NCI-H522) of 33.1 µM and an IC (TGI) (NCI-H522) of over 100 µM. For the same molecule, the GI50 (HT29) was over 100 µM, the IC (TGI) (HT29) was over 100 µM and the GI50 (HCT-15) was 18.6 µM. The IC (TGI) (HCT-15; [2]) was over 100 µM, the GI50 (PC-3) was 61.7 µM and the IC (TGI) (PC-3) was over 100 µM. The GI50 (KM12) was 32.4 µM, the IC (TGI) (KM12) was over 100 µM and the GI50 (ACHN) was 22.9 µM. The IC (TGI) (ACHN) was over 100 µM, the GI50 (NCI-H322M) was 12.9 µM and the IC (TGI) (NCI-H322M) was over 100 µM. It also gave a GI50 (SNB-19) of 21.9 µM, an IC (TGI) (SNB-19) of 95.5 µM and a GI50 [1] of 1.7 µM. The CC50 [1] was over 100 µM, the “Log10 TGI” value [1] was over −4.00 and the GI50 (SF-268) was 19.1 µM. The IC (TGI) (SF-268) was over 100 µM, the GI50 (SK-MEL-28) was 44.7 µM and the IC (TGI) (SK-MEL-28) was over 100 µM. It also gave a GI50 (RXF-393) of 16.2 µM, an IC (TGI) (RXF-393) of 42.7 µM and a GI50 (EKVX) of 77.6 µM. The IC (TGI) (EKVX) was over 100 µM, the GI50 (T-47D) was 18.2 µM and the IC (TGI) (T-47D) was 40.7 µM. The GI50 (HCT-116) was 0.115 µM, the IC (TGI) (HCT-116) was over 100 µM and the GI50 (MALME-3M) was 34.7 µM. For the same molecule, the IC (TGI) (MALME-3M) was over 100 µM, the GI50 (TK-10) was 0.0631 µM and the IC (TGI) (TK-10) was 0.417 µM. For the same molecule, the GI50 (HL-60(TB)) was over 100 µM, the IC (TGI) (HL-60(TB)) was over 100 µM and the GI50 (HCC-2998) was 0.234 µM. It also gave a GI50 (MOLT-4) of over 100 µM, an IC (TGI) (MOLT-4) of over 100 µM and a GI50 (U251) of 0.0575 µM. It also gave an IC (TGI) (U251) of 25.7 µM, a GI50 (K-562) of 2.29 µM and an IC (TGI) (K-562) of over 100 µM. The GI50 (A549/ATCC) was 55 µM, the IC (TGI) (A549/ATCC) was over 100 µM and the GI50 (COLO 205; [3]) was 4.79 µM. The IC (TGI) (COLO 205; [2]) was over 100 µM, the GI50 (NCI-H226) was 0.0174 µM and the IC (TGI) (NCI-H226) was 0.12 µM.

`OCc1ccc(-c2ccc(-c3cccs3)[se]2)s1` [NSC 675344] gave a GI50 (SK-OV-3) of 16.6 µM, an IC (TGI) (SK-OV-3) of over 100 µM and a GI50 (OVCAR-3) of under 0.01 µM. The IC (TGI) (OVCAR-3) was over 100 µM, the GI50 (NCI-H522) was over 100 µM and the IC (TGI) (NCI-H522) was over 100 µM. The GI50 (HT29) was over 100 µM, the IC (TGI) (HT29) was over 100 µM and the GI50 (HCT-15) was 0.0257 µM. For the same molecule, the GI50 (PC-3) was over 100 µM, the IC (TGI) (PC-3) was over 100 µM and the GI50 (KM12) was over 100 µM. The IC (TGI) (KM12) was over 100 µM, the GI50 (ACHN) was 12.9 µM and the IC (TGI) (ACHN) was 83.2 µM. The GI50 (NCI-H322M) was 20.9 µM, the IC (TGI) (NCI-H322M) was over 100 µM and the GI50 (SNB-19) was 29.5 µM. For the same molecule, the IC (TGI) (SNB-19) was over 100 µM, the GI50 [1] was 0.0871 µM and the CC50 [1] was over 100 µM. For the same molecule, the “Log10 TGI” value [1] was over −4.00, the GI50 (SF-268) was 23.4 µM and the IC (TGI) (SF-268) was over 100 µM. The GI50 (SK-MEL-28) was over 100 µM, the IC (TGI) (SK-MEL-28) was over 100 µM and the GI50 (RXF-393) was 15.8 µM. It also gave an IC (TGI) (RXF-393) of 52.5 µM, a GI50 (EKVX) of over 100 µM and an IC (TGI) (EKVX) of over 100 µM. For the same molecule, the GI50 (T-47D) was 0.617 µM, the IC (TGI) (T-47D) was over 100 µM and the GI50 (HCT-116) was under 0.01 µM. The IC (TGI) (HCT-116) was 0.0417 µM, the GI50 (MALME-3M) was over 100 µM and the IC (TGI) (MALME-3M) was over 100 µM. For the same molecule, the GI50 (TK-10) was under 0.01 µM, the IC (TGI) (TK-10) was 0.0501 µM and the GI50 (HL-60(TB)) was over 100 µM. For the same molecule, the IC (TGI) (HL-60(TB)) was over 100 µM, the GI50 (HCC-2998) was 0.257 µM and the IC (TGI) (HCC-2998; [2]) was 1.62 µM. For the same molecule, the GI50 (MDA-MB-231/ATCC; [3]) was 19.1 µM, the IC (TGI) (MDA-MB-231/ATCC; [2]) was over 100 µM and the GI50 (MOLT-4) was over 100 µM. The IC (TGI) (MOLT-4) was over 100 µM, the GI50 (U251) was 0.0251 µM and the IC (TGI) (U251) was 26.3 µM. For the same molecule, the GI50 (K-562) was 0.0437 µM, the IC (TGI) (K-562) was over 100 µM and the GI50 (A549/ATCC) was 45.7 µM. The IC (TGI) (A549/ATCC) was over 100 µM, the GI50 (NCI-H226) was under 0.01 µM and the IC (TGI) (NCI-H226) was under 0.01 µM.
